Columns and labels:
Type in all cases: in vivo, rat
Male Sprague-Dawley rats [1] = assay: radiant heat tail-flick test, baseline and NMDA-induced thermal hyperalgesia
From the text: To examine whether PSD-95/SAP90 was required for thermal hyperalgesia triggered through NMDA receptor activation, we made an antisense oligonucletide (OND) corresponding to the PDZ domain nucleotides 241 to 258 (5′-[…]-3′; SEQ ID NO: 1) of rat PSD-95/SAP90 mRNA, as well as the sense OND and missense OND (5′-[…]-3′; SEQ ID NO: 2). All of the ONDs were compared to the Gene Bank database (GenBank accession number M96853) and found not to be complementary to any registered nucleotide sequences. The effects of antisense, sense and missense ONDs on baseline and NMDA-induced tail-flick latencies were assessed. […] To identify that NMDA-induced thermal hyperalgesia was produced specifically through NMDA receptor activation but not non-NMDA receptor activation, we observed the effects of a selective NMDA receptor antagonist, MK-801, and a selective non-NMDA receptor antagonist, DNQX, on NMDA-induced facilitation of the tail-flick reflex. […] In addition, motor weakness or dysfunction was not observed in locomotor tests (including placing reflex, grasping reflex and righting reflex) in any of the treated animals including the antisense groups (data not shown).
Animal preparation and behavioral testing. All experiments were carried out with the approval of the Animal Care Committee at the Johns Hopkins University and were consistent with the ethical guidelines of the National Institutes of Health and the International Association for the Study of Pain. Male Sprague-Dawley rats (250-300 g) were implanted with an intrathecal PE-10 catheter into the subarachnoid space at the rostral level of the spinal cord lumbar enlargement through an incision at the atlanto-occipital membrane according to the method as described.^25,27 One week or more later, the rats were injected intrathecally with saline or ONDs every 24 h for 4 days. On the fifth day, saline, NMDA, MK-801+NMDA or DNQX+NMDA was given intrathecally. Nociception was evaluated by the radiant heat tail-flick test. The doses and time point of maximal effect of NMDA used in the present study were determined based on a previous study.^24 The tail-flick apparatus (Model 33B Tail Flick Analgesy Meter, IITC Life Science, Woodland Hills, Calif., USA) generated a beam of radiant heat that was focused on the underside of the tail, 5 cm from the tip. A cut-off time latency of 13.5 s was used to avoid tissue damage to the tail. Nociception was assessed by the time required to induce tail-flick after applying radiant heat to the skin of the tail. The latency of reflexive removal of the tail from the heat was measured automatically to the nearest 0.01 s. Tail-flick latency was measured five times, and the basal latency was defined as the mean. Tail-flick data were expressed as percentage change calculated by the formula: (trial latency−baseline latency)/(baseline latency)×100%. Finally, PE-10 catheter position from each animal was confirmed when lumbar enlargement segments were removed for western blot analysis. PCR analysis of PSD-95/SAP90 in rat spinal cord. The cDNA sequences encoding portions of the PSD-95/SAP90 were amplified using the following synthetic OND primers: PSD1 (5′-[…]-3′; SEQ ID NO: 3) and PSD2 (5′-[…]-3′; SEQ ID NO: 4) for amplification of PSD-95/SAP90 codon positions 789-1525. RNA samples (1 μg) from rat spinal cord, brain and muscle were reverse transcribed to generate first-strand cDNA. The PCR reactions were performed for 25 cycles. Each cycle included 30 s at 94° C., 30 s at 55° C., and 30 s at 71° C. The PCR products were directly cloned into the TA cloning vector (Invitrogen Co., San Diego, Calif., USA) and verified by automatic DNA sequencing. Fusion protein construction and preparation. cDNA sequence encoding portion of PSD-95/SAP90 was amplified by PCR and subcloned in-frame into PGEX-2T (GIBCO, Rockville, Md., USA) via the BamHI and EcoRI restriction digest sites. […]

Male Sprague-Dawley rats [2] = assay: tests of locomotor function (placing, grasping, righting reflex) and general behaviors; settings: saline pretreatment + 1.25 μg NMDA intrathecal; five trials, mean (SD)
Procedure: The effects of ODNs on locomotor function were examined using the following methods.^52 The animals were organized randomly into six groups: control (saline); 12.5 antisense ODN; 25 μg antisense ODN; 50 μg antisense ODN; 50 μg sense ODN; 50 μg missense ODN. The rats were pretreated with ODNs or saline in the manner described above. On the fifth day, 10 μl of saline was injected intrathecally for each rat. In some saline or antisense ODN (50 μg)-treated rats, fresh NMDA solution (1.25 μg/10 μl) was injected intrathecally. The following tests were performed with the experimenter blind to which group was treated with the agents: (1) Placing reflex: The rat was held with the hind limbs slightly lower than the forelimbs, and the dorsal surfaces of the hind paws were brought into contact with the edge of a table. The experimenter recorded whether the hind paws were placed on the table surface reflexively; (2) Grasping reflex: The rat was placed on a wire grid and the experimenter recorded whether the hind paws grasped the wire on contact; (3) Righting reflex: The rat was placed on its back on a flat surface and the experimenter noted whether it immediately assumed the normal upright position. […] In addition, the rat general behaviors including spontaneous activity were observed.

Male Sprague-Dawley rats [3] = assay: measurement of isoflurane MAC (tail clamp); settings: saline-treated group, intrathecal NMDA 1.25 μg
Procedure: The ODNs were dissolved in saline before administration. As described in the previous work,^49 the rats were injected intrathecally with saline (10 μl) (control), antisense ODNs (12.5, 25, 50 μg/10 μl), sense ODN (50 μg/10 μl) and missense ODN (50 μg/10 μl), respectively, followed by an injection of 10 μl of saline to flush the catheter, every 24 h for 4 days.
(§1) On the fifth day after saline or ODNs injection, each rat was placed in a clear plastic cone and anesthetized with 5% isoflurane in oxygen for three to five minutes. After tracheostomy, the trachea of each animal was intubated with a 16-gauge polyethylene catheter. The inspired isoflurane concentration was reduced to 2%, and the animals breathed spontaneously until cannulation of a carotid artery and a jugular vein with PE-50 tubing was accomplished. The isoflurane concentration was decreased further to 1.5%, and ventilation was controlled by a Harvard Animal Respirator (Harvard Apparatus, South Natick, Mass.) adjusted according to the measurement of arterial blood gases to maintain normal partial pressure of oxygen (PO2=91-94 mmHg), partial pressure of carbon dioxide (PCO2=33-41 mmHg) and pH (7.4-7.44). Electrocardiography and systolic and diastolic blood pressure were monitored using a Grass Polygraph (Astroumed Grass, Quincy, Mass.) and Gould Pressure Transducer (Gould, Cleveland, Ohio). Rectal temperature was maintained between 36.5 and 37.5° C. by use of a heating blanket and warming lights.
A PE-10 catheter was introduced through and beyond the endotracheal tube until obstruction to passage was met and then withdrawn 1 to 2 mm. For isoflurane MAC measurement, the PE-10 catheter was connected to a parameter airway gas monitor (Datex-Engstrom, Inc., Tewksbury, Mass.). After stabilizing about 30 minutes, MAC was measured according to the methods described previously^34 using a long hemostat (8-inch Rochester Dean Hemostatic Forceps) clamped to the first ratchet lock on the tail for 1 min. The tail was always stimulated proximal to a previous test site. Gross movement of the head, extremities, or body was taken as a positive test result, whereas grimacing, swallowing, chewing, or tail flick were considered negative results. The isoflurane concentration was reduced in decrements of 0.12 to 0.15% until the negative response became positive, with 12-15 min equilibration allowed after changes in concentration.^50,51 The MAC was considered to be the concentration midway between the highest concentration that permitted movement in response to the stimulus and the lowest concentration that prevented movement. Finally, intrathecal PE-10 catheter position from each animal was confirmed.
(§2) In some saline-treated rats, after initial baseline MAC determination, NMDA at the dose of 1.25 μg^38 or saline was injected intrathecally in a volume of 10 μl saline, followed by an injection of 10 μl saline to flush the catheter. Fresh NMDA solution was prepared for each experiment. […] At this isoflurane concentration, 10 min after the intrathecal injection of NMDA, the animals were tested again for reactivity to tail clamp. The concentration of isoflurane was increased, and response to tail clamp was checked every 12-15 min thereafter until a negative response was achieved. In some antisense ODN (50 μg)-treated rats, after initial MAC determination, NMDA or saline was also administered intrathecally. The MAC for isoflurane was again determined following the aforementioned procedures.

Male Sprague-Dawley rats [4] = assay: blood pressure and heart rate during isoflurane anesthesia; settings: saline-treated group, intrathecal NMDA 1.25 μg
From the text: as §1, §2

SMILES: O=[N+]([O-])c1cc2nc(O)c(O)nc2cc1[N+](=O)[O-] [DNQX]
- facilitation of the tail-flick reflex stimulated by NMDA (Male Sprague-Dawley rats [1]; intrathecal DNQX 20 nM/10 μl): had no effect
- ΔTF latency (%) (Male Sprague-Dawley rats [1]; intrathecal DNQX 20 nM/10 μl + NMDA): −22.6%

SMILES: CN[C@H](CC(=O)O)C(=O)O [NMDA, N-methyl-D-aspartate]
- ΔTF latency (%) (Male Sprague-Dawley rats [1]; NMDA alone, intrathecal 10 nM/10 μl): −25.84%
- facilitation of the tail-flick reflex (Male Sprague-Dawley rats [1]; intrathecal NMDA 5 nM/10 μl (data not shown)): induced a facilitation of the tail-flick reflex
- tail-flick latency after NMDA (Male Sprague-Dawley rats [1]; intrathecal NMDA 10 nM/10 μl, baseline 6.58±0.57): 4.88 ± 0.41 s
- Grasping (Male Sprague-Dawley rats [2]): 5 (0)
- Placing (Male Sprague-Dawley rats [2]): 5 (0)
- Righting (Male Sprague-Dawley rats [2]): 5 (0)
- increase from isoflurane control MAC (Male Sprague-Dawley rats [3]): 15%
- Heart rate (Male Sprague-Dawley rats [4]): 529.20±55.20 beats/min
- diastolic blood pressure (Male Sprague-Dawley rats [4]): 118.30±7.81 mmHg
- systolic blood pressure (Male Sprague-Dawley rats [4]): 135.70±3.38 mmHg

SMILES: C[C@]12N[C@H](Cc3ccccc31)c1ccccc12 [MK-801]
- facilitation of the tail-flick reflex stimulated by NMDA (Male Sprague-Dawley rats [1]; intrathecal MK-801 10 nM/10 μl): completely abolished
- ΔTF latency (%) (Male Sprague-Dawley rats [1]; intrathecal MK-801 10 nM/10 μl + NMDA): 0.9%
